Key:
Format in all cases: biochemical
[1] = target: T1, ST3Gal II (Cloned rat liver) (Rattus norvegicus, UniProt Q11205); assay: Forward (direct) sialyltransferase activity, ST3Gal-II; settings: donor CMP-[9-3H]NeuAc, acceptor [5], varying nucleotide concentrations
T1 construct: purchased Calbiochem
T1 sequence (Q11205 1-350): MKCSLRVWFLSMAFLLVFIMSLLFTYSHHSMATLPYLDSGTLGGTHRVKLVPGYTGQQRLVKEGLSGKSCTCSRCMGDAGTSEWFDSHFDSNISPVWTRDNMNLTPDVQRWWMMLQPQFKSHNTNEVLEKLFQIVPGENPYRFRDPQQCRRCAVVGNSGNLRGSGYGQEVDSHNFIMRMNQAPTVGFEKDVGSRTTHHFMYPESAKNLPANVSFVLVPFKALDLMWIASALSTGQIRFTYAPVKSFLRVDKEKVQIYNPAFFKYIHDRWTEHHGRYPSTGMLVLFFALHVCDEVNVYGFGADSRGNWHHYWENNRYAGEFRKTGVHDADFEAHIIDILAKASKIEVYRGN
Protocol: (§1) FIG. 5. Effect of 5′-nucleotides on direct sialyltransferase activity (panel a) and reverse sialylation (panel b). a. Varying concentrations of 5′-CDP or 5′-CMP were added to 100 mM acceptor (specified below), 0.15 mM CMP-[9-^3H]NeuAc and either ST3Gal-II (0.2 mU), ST3Gal-III (0.5 mU) or ST6Gal-I (0.2 mU) for 4 h at 37° C. Products were separated using Sep-Pak C18 method. ST3Gal-III activity was measured using acceptor 4-O-MeGalβ1,4GlcNAcβ-O-Bn in the presence of 5′-CDP (●) and 5′-CMP (◯). ST6Gal-I activity was measured using Gal β1,4GlcNAcβ-O-Bn in the presence of 5′-CDP (▴) and 5′-CMP (Δ). ST3Gal-II using D-Fucβ1,3GalNAcα-O-Bn in the presence of 5′-CDP (▪) and 5′-CMP (□). b) Reverse sialylation by ST3Gal-II was measured in reaction mixtures containing 0.2 mM [9-^3H] [3], 7 mM 5′-CMP, ST3Gal-II (2 mU), D-Fucβ1,3GalNAcα-OBn (3.0 mM) and varying doses of either 5′-CDP (▴), 5′-UMP (◯) or 2-deoxy 5′-CMP (●) for 4 hours at 37° C. Reaction product ([9-^3H]NeuAcα2,3DFucβ1,3 GalNAcα-O-Bn) was isolated using Sep-Pak C18 method. In some runs, where was absent, the amount of CMP-NeuAc produced was quantified using the Dowex-1 Formate method in the presence of varying doses of 5′-CDP (▪).
(§2) Besides pH other distinctions were also observed between forward and reverse sialylation. In this regard, citrate ions tended to inhibit forward sialylation but not reverse sialylation activity (Table V). For these studies, the effect of citrate on the forward sialylation activity of ST3Gal-I, ST3Gal-II, ST3Gal-III and ST6Gal-I was examined. Reverse sialylation activity of ST3Gal-II was also measured in terms of: i) the formation of CMP-NeuAc from 5′-CMP; and ii) the transfer of NeuAc from this newly synthesized CMP-NeuAc to another O-glycan. From the data (Table V), it is evident that citrate inhibits the direct sialylation activity of all the enzymes mentioned above. However, both the synthesis of CMP-[9-^3H]NeuAc from 5′-CMP as well as the synthesis of [9-^3H]NeuAcα2,3D-Fucβ1,3 GalNAcα-O-Bn using the newly formed CMP-[9-^3H]NeuAc through reverse sialylation of ST3Gal-II was not inhibited by citrate.
(§3) The effect of 5′-nucleotides on forward sialylation (FIG. 5a) and reverse sialylation (FIG. 5b) were examined. […] The overall formation of [9-^3H]NeuAcα2,3D-Fucβ1,3 GalNAcα-O-Bn by the two-step reverse sialylation process, however, was inhibited by 5′-CDP and this is consistent with the finding that 5′-CDP inhibits forward sialylation in the second step.

[2] = target: T2, ST3Gal III (Cloned rat liver) (Rattus norvegicus, UniProt Q02734); assay: Forward (direct) sialyltransferase activity, ST3Gal-III; settings: donor CMP-[9-3H]NeuAc, acceptor 4-O-MeGalβ1,4GlcNAcβ-O-Bn
T2 construct: purchased Calbiochem
T2 sequence (Q02734 1-374): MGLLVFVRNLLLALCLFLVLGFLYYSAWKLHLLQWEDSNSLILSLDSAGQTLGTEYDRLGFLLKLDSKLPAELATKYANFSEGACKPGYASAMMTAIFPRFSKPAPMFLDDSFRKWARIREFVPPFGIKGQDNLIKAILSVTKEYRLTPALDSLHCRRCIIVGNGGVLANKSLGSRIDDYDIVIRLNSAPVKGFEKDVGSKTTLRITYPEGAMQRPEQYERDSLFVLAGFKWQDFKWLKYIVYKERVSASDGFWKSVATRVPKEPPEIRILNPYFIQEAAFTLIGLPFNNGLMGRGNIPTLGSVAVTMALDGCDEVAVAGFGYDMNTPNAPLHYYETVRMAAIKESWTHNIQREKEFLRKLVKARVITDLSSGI
Protocol: as §1, §2, §3

[3] = target: T3, ST6Gal I (Cloned rat liver) (Rattus norvegicus, UniProt P13721); assay: Forward (direct) sialyltransferase activity, ST6Gal-I; settings: donor CMP-[9-3H]NeuAc, acceptor Galβ1,4GlcNAcβ-O-Bn
T3 construct: purchased Calbiochem
T3 sequence (P13721 1-403): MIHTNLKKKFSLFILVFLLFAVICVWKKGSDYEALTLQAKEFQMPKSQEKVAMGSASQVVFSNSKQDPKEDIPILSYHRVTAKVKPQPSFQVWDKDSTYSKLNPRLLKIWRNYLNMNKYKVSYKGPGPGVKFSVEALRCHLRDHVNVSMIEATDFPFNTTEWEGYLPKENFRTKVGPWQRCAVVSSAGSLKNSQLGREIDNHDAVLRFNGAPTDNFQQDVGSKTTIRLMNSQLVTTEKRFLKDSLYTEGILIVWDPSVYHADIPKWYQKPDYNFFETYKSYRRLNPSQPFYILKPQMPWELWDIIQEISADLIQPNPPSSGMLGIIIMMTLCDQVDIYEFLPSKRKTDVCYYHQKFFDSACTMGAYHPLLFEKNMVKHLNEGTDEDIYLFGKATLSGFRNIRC
Protocol: as §1, §2, §3

Row | Effect on forward sialylation activity of ST3Gal-II [1] | Effect on forward sialylation activity of ST3Gal-III [2] | Effect on forward sialylation activity of ST6Gal-I [3] | SMILES
1 | inhibited | inhibited | inhibited | Nc1ccn([C@@H]2O[C@H](COP(=O)(O)OP(=O)(O)O)[C@@H](O)[C@H]2O)c(=O)n1 [5′-CDP]
2 | inhibited | inhibited | inhibited | Nc1ccn([C@@H]2O[C@H](COP(=O)(O)O)[C@@H](O)[C@H]2O)c(=O)n1 [5′-CMP, Cytidine 5′-monophosphate]
